# Data published in US20140296137A1, “METHODS AND COMPOSITIONS FOR CONTROLLING ROTIFERS” (Los Alamos National Security, LLC, priority 2013, published 2014).
# Ends that are not written are not given here.
# Assays:
# [1] = system: Chlamydomonas reinhardtii; conditions: 5-6 days, room temperature, 96-well, algae colour under 20× microscope; ND = AMP killed all the algae
# Method: (§1) This example provides the minimal inhibitory concentration (MIC) of antimicrobial peptides (AMPs) for algae. […] Therefore, the tolerance of algae to the AMPs listed in Table 2 of Example 1 was measured.
# (§2) Briefly, the algae viability assay used herein measured the “health” of the algae cultures by looking at the color of the algae. […] A visual assay was used to determine the MIC for the individual AMPs on the algae. In each case, a light microscope with 20× magnification was used to observe algae color.
# (§3) The effect of insecticidal and non-insecticidal AMPs on three different algae species was measured. The three algae species were Auxenochlorella protothecoides, Chlorella sorokiniana and Chlamydomonas reinhardtii.
# (§4) Algae cultures were initiated in 96-well plates at an OD 750 of approximately 0.1. […] The antibiotics hygromycin and paromycin served as positive controls for inhibiting and/or reducing the growth rate of algae. […] The algae cultures were monitored by preparing microscopy slides with a small sample taken from the individual wells. The algae slides were then visualized under a 20× magnification microscope for algae viability as measured by algae color.
# [2] = system: Chlorella protothecoides; conditions: 5-6 days, room temperature, 96-well, algae colour under 20× microscope; ND = AMP killed all the algae
# Method: as §1, §2, §3, §4
# [3] = system: Chlorella sorokiniana; conditions: 5-6 days, room temperature, 96-well, algae colour under 20× microscope; ND = AMP killed all the algae
# Method: as §1, §2, §3, §4
# [4] = system: Adineta vaga; assay type: in vivo; parameters: key to the marks not given beside the values; conditions: AMP 0.5 mg/mL, 24 hr time point, room temperature, visual motility score
# From the text: (§5) Briefly, the rotifer motility assay used herein in the presence of a biocontrol agent (e.g., AMP) may be used as a measure of relative rotifer viability and competency. Rotifer diet, of which algae is considered to be an important food source, is one of the key environmental factors that impact the growth and multiplication of rotifers. In effect, the inability of a rotifer to be mobile (i.e., inability to swim toward a food source and/or to have mobile cilia that help trap food) prevents the rotifer from ingesting sufficient nutrients to further grow and reproduce. Thus, any approach that reduces and/or inhibits rotifer motility has a significant impact on an individual rotifer and therefore rotifer populations. With respect to algae cultures, reducing and/or inhibiting rotifer motility prevents and/or reduces any negative impact rotifers have on algae cultures (e.g., open pond systems for algae biomass and biofuel production). In other words, reducing and/or inhibiting rotifer motility reduces and/or prevents rotifers (e.g., infestations) from ingesting and consequently damaging algae cultures use in biofuel production.
# (§6) The effect of the insecticidal and non-insecticidal AMPs of Table 2 (Example 1) on three different rotifer species was measured. The three rotifer species were Adineta vaga and Philodina acuticornis (class Bdelloid rotifers), and Brachionus (Monogononta class). A visual motility assay was used to determine the impact of the individual AMPs on rotifer viability. In each case, a light microscope with 20× magnification was used to observe rotifer motility (activity). […] FIGS. 1A, 1C and 1E show a 20× magnification of Adineta vaga, Philodina acuticornis and Brachionus (untreated), respectively. FIGS. 1B, 1D and 1F show a 20× magnification of Adineta vaga, Philodina acuticornis and Brachionus (AMP treated), respectively.
# (§7) Rotifer cultures were initiated in 12-well or 24-well plates at a density of approximately 100-200 rotifers/mL. The 12-well plates contained a volume of 1 mL per well, and the 24-well plates contained a volume of about 0.25 mL to about 0.35 mL per well. Individual rotifer cultures (individual wells) were incubated with a select AMP at a concentration of 0.5 mg/mL (or a range of about 78 μM to about 365 μM) for 18, 21 and 24 hours at room temperature. The rotifer cultures were monitored by preparing microscopy slides with a small sample taken from the individual wells. The slides were then visualized under a 20× magnification microscope for rotifer motility. […] The scoring system was based on observing a subset of the rotifer population from each well. The impact on the subset of rotifers observed served as a representative of the impact on the entire rotifer population for that particular AMP treatment.
# (§8) A summary of the motility assay (or “Kill Assay”) for each insecticidal and non-insecticidal AMP incubated with the three different rotifer species for the 24 hour time point is provided below in Table 5 (insecticidal AMPs) and Table 6 (non-insecticidal AMPs). The 18 and 21 hour time points gave similar results to the 24 hour time point.
# [5] = system: Philodina acuticornis; assay type: in vivo; parameters: key to the marks not given beside the values; conditions: AMP 0.5 mg/mL, 24 hr time point, room temperature, visual motility score
# From the text: as §5, §6, §7, §8
# [6] = system: Brachionus; assay type: in vivo; conditions: AMP 0.5 mg/mL, 24 hr time point, room temperature, visual motility score
# From the text: as §5, §6, §7, §8
# [7] = system: three algae species; test: Algae viability assay, summary statements over the three algae species; assay type: cell-based; conditions: comparison of Tables 3 and 4 with Tables 5 and 6
# Method: as §1, §2, §3
# Algae cultures were initiated in 96-well plates at an OD 750 of approximately 0.1. […] The antibiotics hygromycin and paromycin served as positive controls for inhibiting and/or reducing the growth rate of algae. Algae cultured in water or media served as a negative control (i.e., no effect on growth). The algae cultures were monitored by preparing microscopy slides with a small sample taken from the individual wells. The algae slides were then visualized under a 20× magnification microscope for algae viability as measured by algae color. […]
# [8] = system: three rotifer species; test: Rotifer visual motility assay, summary statements over the three rotifer species; assay type: in vivo, Adineta vaga, Philodina acuticornis and Brachionus; conditions: AMP 0.5 mg/mL
# From the text: as §5, with “In other words, reducing and/or inhibiting rotifer motility reduces and/or prevents rotifers (e.g., infestations) from ingesting and consequently damaging algae cultures use in biofuel production.” left out
# The effect of the insecticidal and non-insecticidal AMPs of Table 2 (Example 1) on three different rotifer species was measured. […]
# Rotifer cultures were initiated in 12-well or 24-well plates at a density of approximately 100-200 rotifers/mL. […] The rotifer cultures were monitored by preparing microscopy slides with a small sample taken from the individual wells. […]
Sequence,Minimal Inhibitory Concentration (MIC) Chlamydomonas reinhardtii [1] [µM],Minimal Inhibitory Concentration (MIC) Chlorella protothecoides [2],Minimal Inhibitory Concentration (MIC) Chlorella sorokiana [3] [µM],“Kill” Efficiency Adineta vaga [4],“Kill” Efficiency Philodina [5],“Kill” Efficiency Brachionus [6],tolerance of algae to the AMP (in words) [7],negative impact on rotifer motility (in words) [8]
FIGTALGIASAIPAIVKLFK [Ponericin W6],61.6,No Affect,492.5,++,++,+++,highly tolerated by algae,high negative impact
"FLPLIGKVLSGIL [Temporin F, Temporin-F]",91.3,365 µM,730.7,–,–,–,highly tolerated by algae,high negative impact
